Test results as given in PubChem BioAssay AID330 (DTP/NCI, 2004).
Values joined by “and” are separate entries in the source; they are usually repeats but may differ in a detail not shown here. Equal values may be shown once. Inconclusive results and toxic doses are left out.

Test system: P388 leukemia ip, CD2F1 mice, survival T/C
Experiment: NCI In Vivo Anticancer Drug Screen. Data for tumor model P388 Leukemia (intraperitoneal) in CD2F1 (CDF1) mice
Settings: endpoint: median survival time, higher = longer survival
Procedure, shortened: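 Mice carrying the transplanted tumor received test compound or vehicle. Survival was recorded in each group, and the value is the treated-group measurement divided by that of the vehicle-treated control group.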

[1] = dose: 100.0 mg/kg/injection, schedule: Q04DX003 (ip), vehicle: saline with Tween-80
[2] = dose: 200.0 mg/kg/injection, schedule: Q04DX003 (ip), vehicle: saline with Tween-80
[3] = dose: 400.0 mg/kg/injection, schedule: Q04DX003 (ip), vehicle: saline with Tween-80
[4] = dose: 50.0 mg/kg/injection, schedule: Q01DX009 (ip), vehicle: saline with Tween-80
[5] = dose: 100.0 mg/kg/injection, schedule: Q01DX009 (ip), vehicle: saline with Tween-80
[6] = dose: 200.0 mg/kg/injection, schedule: Q01DX009 (ip), vehicle: saline with Tween-80
[7] = dose: 60.0 mg/kg/injection, schedule: Q01DX005 (ip), vehicle: saline with Tween-80
[8] = dose: 120.0 mg/kg/injection, schedule: Q01DX005 (ip), vehicle: saline with Tween-80
[9] = dose: 240.0 mg/kg/injection, schedule: Q01DX005 (ip), vehicle: saline with Tween-80
[10] = dose: 50.0 mg/kg/injection, schedule: Q01DX005 (ip), vehicle: Klucel (hydroxypropylcellulose) (HPC)
[11] = dose: 100.0 mg/kg/injection, schedule: Q01DX005 (ip), vehicle: Klucel (hydroxypropylcellulose) (HPC)
[12] = dose: 200.0 mg/kg/injection, schedule: Q01DX005 (ip), vehicle: Klucel (hydroxypropylcellulose) (HPC)
[13] = dose: 100.0 mg/kg/injection, schedule: Q04DX003 (ip), vehicle: saline
[14] = dose: 200.0 mg/kg/injection, schedule: Q04DX003 (ip), vehicle: saline
[15] = dose: 400.0 mg/kg/injection, schedule: Q04DX003 (ip), vehicle: saline
[16] = dose: 12.5 mg/kg/injection, schedule: Q01DX005 (ip), vehicle: saline with Tween-80
[17] = dose: 25.0 mg/kg/injection, schedule: Q01DX005 (ip), vehicle: saline with Tween-80
[18] = dose: 50.0 mg/kg/injection, schedule: Q01DX005 (ip), vehicle: saline with Tween-80
[19] = dose: 100.0 mg/kg/injection, schedule: Q01DX005 (ip), vehicle: saline with Tween-80
[20] = dose: 200.0 mg/kg/injection, schedule: Q01DX005 (ip), vehicle: saline with Tween-80

## CN(C)CCCNC(=O)c1cccc2cccc(C(=O)O)c12
dose: 60.0 mg/kg/injection, schedule: Q01DX005 (ip), vehicle: saline
  T/C: 97 % of control
dose: 120.0 mg/kg/injection, schedule: Q01DX005 (ip), vehicle: saline
  T/C: 101 % of control
dose: 240.0 mg/kg/injection, schedule: Q01DX005 (ip), vehicle: saline
  T/C: 104 % of control

## CCCC(NC(=O)C(C)Br)C(=O)O (centres undefined)
[1]
  T/C: 95 % of control
[2]
  T/C: 100 % of control
[3]
  T/C: 100 % of control

## C1CCC2C(C1)CCC1CCCCC12 (centres undefined)
dose: 25.0 mg/kg/injection, schedule: Q01DX001 (ip), vehicle: saline with Tween-80
  T/C: 96 % of control
dose: 50.0 mg/kg/injection, schedule: Q01DX001 (ip), vehicle: saline with Tween-80
  T/C: 113 % of control
dose: 100.0 mg/kg/injection, schedule: Q01DX001 (ip), vehicle: saline with Tween-80
  T/C: 100 % of control and 114 % of control
dose: 200.0 mg/kg/injection, schedule: Q01DX001 (ip), vehicle: saline with Tween-80
  T/C: 110 % of control

## CC1CCC2(C)CCC3(C)C(=CCC4C5(C)CCC(Oc6ccc(O)cc6)C(C)(C)C5CCC43C)C2C1C(=O)O (centres undefined)
dose: 0.5 mg/kg/injection, schedule: Q01DX005 (ip), vehicle: DMSO
  T/C: 101 % of control
dose: 1.0 mg/kg/injection, schedule: Q01DX005 (ip), vehicle: DMSO
  T/C: 100 % of control
dose: 2.0 mg/kg/injection, schedule: Q01DX005 (ip), vehicle: DMSO
  T/C: 101 % of control
dose: 4.0 mg/kg/injection, schedule: Q01DX005 (ip), vehicle: DMSO
  T/C: 100 % of control

## CCCCc1ccc(Sc2cccc3c2C(=O)c2c(Sc4ccc(CCCC)cc4)cccc2C3=O)cc1
[1]
  T/C: 95 % of control
[2]
  T/C: 90 % of control
[3]
  T/C: 86 % of control

## C/C=C(\C#N)SCC
[4]
  T/C: 103 % of control
[5]
  T/C: 114 % of control
[6]
  T/C: 109 % of control

## Cc1cccc(-c2nc3c(C)nc(-c4ccccc4)nc3n2Nc2ccccc2)c1
dose: 100.0 mg/kg/injection, schedule: Q01DX001 (ip), vehicle: Klucel (hydroxypropylcellulose) (HPC)
  T/C: 87 % of control

## Nc1ccccc1SC(C[N+](=O)[O-])c1ccc2c(c1)OCO2 (centres undefined)
[7]
  T/C: 115 % of control
[8]
  T/C: 114 % of control

## Fc1ccc(C(Nc2nncs2)Nc2nncs2)cc1F
[7]
  T/C: 101 % of control
[8]
  T/C: 101 % of control
[9]
  T/C: 110 % of control

## O=C1CCSCC1
[4]
  T/C: 99 % of control
[5]
  T/C: 113 % of control
[6]
  T/C: 100 % of control
dose: 400.0 mg/kg/injection, schedule: Q01DX009 (ip), vehicle: saline with Tween-80
  T/C: 98 % of control

## Nc1nc2nc(N=Nc3ccc(S(=O)(=O)O)cc3)[nH]c2c(=O)[nH]1
[10]
  T/C: 104 % of control
[11]
  T/C: 104 % of control
[12]
  T/C: 104 % of control

## CCOC(=O)C1(c2ccccc2)SC(C(=O)OCC)(c2ccccc2)S1 (centres undefined)
[13]
  T/C: 112 % of control
[14]
  T/C: 107 % of control
[15]
  T/C: 103 % of control

## O=C(O)c1ccc(S(=O)(=O)F)c(Cl)c1
[7]
  T/C: 120 % of control
[8]
  T/C: 119 % of control
[9]
  T/C: 121 % of control

## CCCCC(CCCCCC(CCCC)C1NC(C)Cc2cc(OC)c(OC)cc21)C1NC(C)Cc2cc(OC)c(OC)cc21 (centres undefined)
dose: 6.25 mg/kg/injection, schedule: Q01DX005 (ip), vehicle: saline
  T/C: 99 % of control
dose: 12.5 mg/kg/injection, schedule: Q01DX005 (ip), vehicle: saline
  T/C: 105 % of control
dose: 25.0 mg/kg/injection, schedule: Q01DX005 (ip), vehicle: saline
  T/C: 90 % of control

## N#CCc1c(-c2ccccc2)c(-c2ccccc2)c2n1CCC2
[10]
  T/C: 98 % of control
[11]
  T/C: 99 % of control
[12]
  T/C: 96 % of control

## CCCCOc1cc2c(cc1C(C)c1ccccc1)OCO2 (centres undefined)
[16]
  T/C: 94 % of control
[17]
  T/C: 91 % of control
[18]
  T/C: 101 % of control and 90 % of control

## O=C1OC2C(I)C3CC2C1C3c1ccccc1 (centres undefined)
[18]
  T/C: 105 % of control
[19]
  T/C: 103 % of control
[20]
  T/C: 105 % of control

## CC1CN=C(c2ccc(NC(=O)NCCCNC(=O)Nc3ccc(C4=NCC(C)N4)cc3)cc2)N1 (centres undefined)
[10]
  T/C: 153 % of control and 158 % of control

## CC(CN)OC12CC3CC(CC(C3)C1)C2 (centres undefined)
[7]
  T/C: 100 % of control
[8]
  T/C: 99 % of control

## O=C1CCCOCCCOCCCOCCCOCCCOCCC1
[18]
  T/C: 103 % of control
[19]
  T/C: 100 % of control
[20]
  T/C: 100 % of control

## CCN(CC)c1nc(/C=C\c2ccc(N(C)C)cc2)c2nccnc2n1
dose: 50.0 mg/kg/injection, schedule: Q01DX009 (ip), vehicle: Klucel (hydroxypropylcellulose) (HPC)
  T/C: 95 % of control
dose: 100.0 mg/kg/injection, schedule: Q01DX009 (ip), vehicle: Klucel (hydroxypropylcellulose) (HPC)
  T/C: 90 % of control
dose: 200.0 mg/kg/injection, schedule: Q01DX009 (ip), vehicle: Klucel (hydroxypropylcellulose) (HPC)
  T/C: 94 % of control

## CC(=O)OCC1OC(S[As](C2CCCCC2)C2CCCCC2)C(OC(C)=O)C(OC(C)=O)C1OC(C)=O (centres undefined)
dose: 25.0 mg/kg/injection, schedule: Q04DX003 (ip), vehicle: Klucel (hydroxypropylcellulose) (HPC)
  T/C: 109 % of control
dose: 50.0 mg/kg/injection, schedule: Q04DX003 (ip), vehicle: Klucel (hydroxypropylcellulose) (HPC)
  T/C: 116 % of control

## S=C=NP1(N=C=S)=NP(N=C=S)(N=C=S)=NP(N=C=S)(N=C=S)=NP(N=C=S)(N=C=S)=N1 (centres undefined)
[16]
  T/C: 100 % of control
[17]
  T/C: 99 % of control
[18]
  T/C: 104 % of control and 109 % of control
[19]
  T/C: 114 % of control

## CCOC(=O)CC(SP(=S)(OC)OC)C(=O)OCC (centres undefined)
[4]
  T/C: 103 % of control
[5]
  T/C: 112 % of control
[6]
  T/C: 107 % of control

## CCCCCCCCCCCC(=O)N(CCOC(=O)c1ccccc1)CCOC(=O)c1ccccc1
[4]
  T/C: 101 % of control
[5]
  T/C: 93 % of control
[6]
  T/C: 107 % of control

## CCCCOCN(COCCCC)C12CC3CC(CC(C3)C1)C2
[4]
  T/C: 113 % of control

## N/C(=N\O)c1cn(C2OC(CO)C(O)C2O)c2ncnc(N)c12 (centres undefined)
dose: 2.5 mg/kg/injection, schedule: Q01DX009 (ip), vehicle: saline sonified
  T/C: 154 % of control
dose: 5.0 mg/kg/injection, schedule: Q01DX009 (ip), vehicle: saline sonified
  T/C: 159 % of control

## O=C(O)Cc1sc(=O)[nH]c1O
[13]
  T/C: 100 % of control
[14]
  T/C: 100 % of control
[15]
  T/C: 95 % of control

## CC(=O)OC1CC(OC(C)=O)C(OC(C)=O)C(CS[As](C)C)O1 (centres undefined)
[4]
  T/C: 99 % of control
[5]
  T/C: 99 % of control
[6]
  T/C: 96 % of control

## Nc1nc(Nc2ccc(C3=NCCN3)cc2)nc(Nc2ccc(C3=NCCN3)cc2)n1
dose: 6.25 mg/kg/injection, schedule: Q01DX009 (ip), vehicle: saline
  T/C: 122 % of control
dose: 6.25 mg/kg/injection, schedule: Q01DX009 (ip), vehicle: suspension in saline
  T/C: 108 % of control

## [O-][n+]1ccccc1[S][Sn]([Cl])([Cl])[S]c1cccc[n+]1[O-]
[4]
  T/C: 94 % of control
[5]
  T/C: 106 % of control
[6]
  T/C: 102 % of control

## CCOC(=O)Nc1nc2ccc(C(=O)OCC)cc2[nH]1
[13]
  T/C: 108 % of control
[14]
  T/C: 101 % of control
[15]
  T/C: 108 % of control
